Experiments:
[1] = target: T1, interleukin-2-inducible T cell kinase (ITK) (Homo sapiens, UniProt Q08881); assay: ELISA kinase activity assay with purchased ITK protein (MilliporeSigma #[…]-660); format: biochemical
T1 sequence (Q08881 1-620): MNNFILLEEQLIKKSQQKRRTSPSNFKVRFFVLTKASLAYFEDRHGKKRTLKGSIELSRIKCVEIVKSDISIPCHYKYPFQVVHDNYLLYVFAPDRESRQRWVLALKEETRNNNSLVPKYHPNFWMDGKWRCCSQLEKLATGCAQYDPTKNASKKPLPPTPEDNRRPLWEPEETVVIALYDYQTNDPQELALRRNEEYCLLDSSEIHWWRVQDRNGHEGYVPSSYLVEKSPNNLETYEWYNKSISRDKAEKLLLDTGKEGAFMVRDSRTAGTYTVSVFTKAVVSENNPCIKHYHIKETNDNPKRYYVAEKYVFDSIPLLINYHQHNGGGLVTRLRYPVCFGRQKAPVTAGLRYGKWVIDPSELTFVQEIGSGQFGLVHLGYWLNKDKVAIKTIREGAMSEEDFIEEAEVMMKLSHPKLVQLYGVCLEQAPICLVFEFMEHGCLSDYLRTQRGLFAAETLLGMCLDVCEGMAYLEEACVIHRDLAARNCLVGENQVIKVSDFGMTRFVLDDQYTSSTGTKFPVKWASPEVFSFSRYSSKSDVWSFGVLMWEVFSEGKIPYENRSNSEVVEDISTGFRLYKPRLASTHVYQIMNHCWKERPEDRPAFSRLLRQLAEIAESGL

[2] = target: Bruton’s tyrosine kinase (BTK) (Homo sapiens, UniProt Q06187); assay: ELISA kinase activity assay with purchased BTK protein (MilliporeSigma #[…]-552); format: biochemical
Sequence of Bruton’s tyrosine kinase (BTK) (Q06187 2-659): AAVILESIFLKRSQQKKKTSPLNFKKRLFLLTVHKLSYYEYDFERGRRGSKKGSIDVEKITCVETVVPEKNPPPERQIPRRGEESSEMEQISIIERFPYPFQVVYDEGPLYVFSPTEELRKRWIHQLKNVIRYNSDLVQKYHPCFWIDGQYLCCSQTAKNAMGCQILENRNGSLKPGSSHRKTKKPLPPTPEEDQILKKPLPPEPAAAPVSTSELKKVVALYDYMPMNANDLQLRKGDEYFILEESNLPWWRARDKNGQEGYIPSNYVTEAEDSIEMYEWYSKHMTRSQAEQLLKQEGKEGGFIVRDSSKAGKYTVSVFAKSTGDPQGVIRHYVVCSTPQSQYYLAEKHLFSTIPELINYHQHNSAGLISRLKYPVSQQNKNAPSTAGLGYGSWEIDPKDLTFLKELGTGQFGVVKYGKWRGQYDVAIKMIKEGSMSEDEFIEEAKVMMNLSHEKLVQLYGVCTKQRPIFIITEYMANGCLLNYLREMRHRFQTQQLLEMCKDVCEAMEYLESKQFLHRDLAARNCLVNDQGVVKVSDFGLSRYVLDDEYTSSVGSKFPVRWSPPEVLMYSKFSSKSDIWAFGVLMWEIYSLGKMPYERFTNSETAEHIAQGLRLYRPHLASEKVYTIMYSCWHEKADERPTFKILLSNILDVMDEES

SMILES: C=CC(=O)Nc1cc(Nc2ncc(Cl)c(Nc3ccc4ccccc4c3)n2)c(OC)cc1N(C)CCN(C)C [ASK120067]
- IC50 [1]: 0.4 nM
- IC50 [2]: 2.1 nM
